Test results published in patent US20080292584A1 (priority 2005, published 2008).
Several values for one entry are separate records, joined by “and”; a condition that tells them apart may be missing. Equal entries are not always repeated. Where two headings read alike, the source gives them in different places.

Key:
[1] = target: T1, CYP2A6 (Homo sapiens, UniProt P11509); test: Inhibition of CYP2A6 activity in pooled human liver microsomes (coumarin 8 μM to 7-hydroxy coumarin); type: in vitro ADME
T1 sequence (P11509 1-494): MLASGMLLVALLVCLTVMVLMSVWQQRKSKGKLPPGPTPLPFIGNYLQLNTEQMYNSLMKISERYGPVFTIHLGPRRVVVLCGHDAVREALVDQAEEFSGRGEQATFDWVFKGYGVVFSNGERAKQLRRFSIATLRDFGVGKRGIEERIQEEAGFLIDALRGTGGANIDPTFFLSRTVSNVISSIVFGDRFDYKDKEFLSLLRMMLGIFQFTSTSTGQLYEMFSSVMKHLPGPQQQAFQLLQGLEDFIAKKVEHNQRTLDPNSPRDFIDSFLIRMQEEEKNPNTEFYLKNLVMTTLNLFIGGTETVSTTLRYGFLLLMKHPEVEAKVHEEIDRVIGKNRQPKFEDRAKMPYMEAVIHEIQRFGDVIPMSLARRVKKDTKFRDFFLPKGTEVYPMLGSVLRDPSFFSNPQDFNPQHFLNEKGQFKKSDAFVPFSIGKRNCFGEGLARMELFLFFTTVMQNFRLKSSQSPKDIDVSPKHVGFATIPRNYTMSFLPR
Method: (§1) All other incubations were for 30 minutes.
(§2) Four replicates were performed.
(§3) Two replicates were performed.

[2] = target: T2, CYP2C9 (Homo sapiens, UniProt P11712); test: Induction/inhibition of CYP2C9 activity in cryopreserved human hepatocytes (tolbutamide)
Excerpt: Hepatocytes from three human donors were obtained from a cryopreserved hepatocyte bank (In Vitro Technologies, Inc., USA). After thawing, viable hepatocytes were transferred to collagen-coated 48-well plates for attachment in plating medium (DMEM stock (Dulbecco's modified Eagle's medium, supplemented with bovine serum albumin, fructose, N-(2-hydroxyethyl)piperazine-N′-(2-ethanesulfonate) (HEPES), and sodium bicarbonate), supplemented with antibiotics, bovine serum, hydrocortisone, insulin and minimum essential medium (MEM) nonessential amino acids). After attachment to the collagen matrix, plating medium was replaced with sandwich medium (plating medium supplemented with VITROGEN) and incubated until use.
The supplemented KHB was replaced with 150 μL supplemented KHB containing the appropriate isoform-selective substrate and incubated for 4 hrs prior to termination by adding 150 μL ice-cold methanol, except for the CYP2C8 incubations which were terminated by adding 150 μL acetonitrile.
All substrates were dissolved in acetonitrile.
Replicate trials and controls were performed. […] Additionally, reference control samples were included to evaluate inducibility of CYP2B6, CYP2C9, and CYP2C19 in the test system.
Mean specific activity values with associated p-values≦0.05 were deemed to be statistically significant.

[3] = target: CYP2D6 (Homo sapiens, UniProt P10635); test: Metabolism of metaxalone by expressed recombinant human CYP2D6 at 5 or 20 pmol (Example 4); conditions: for percent turnover / % Turnover Mean / [metaxalone] Mean / % Turnover % / [metaxalone]: 60 min; for % Turnover % / [metaxalone]: single replicates, listed as Metaxalone
Method: For CYP2C9 and CYP2D6, SUPERSOMES singly-expressing different allelic variants of the cytochrome p450 isozyme were commercially available. For each of CYP2C9 and CYP2D6, only the *1 allele was tested in these experiments. […]

[4] = target: T2, CYP2C9; conditions: 1 mg/mL HLM, 60 min, with sulfaphenazole; for % Turnover / % inhibition of turnover / Conc.: single replicates
Method: Human liver microsomes pooled from 15 individuals (male and female) (Pool HMMC-PL020; CellzDirect, Inc., In Vitro Products and Services Division) were used in some experiments of this study.
% Turnover=100−{[TA(final)]/[mean of TA(0 min)]}×100,
% Inhibition of Turnover=100{1−([TA(0 min)]−[TA(final-inhibitor)])/([TA(0 min)]−[TA(final-no inhibitor)])}.
The inhibitors or vehicle control were incubated with the pooled human liver microsomes (1 mg/mL) and NADPH (1 mM) in 0.1 M phosphate buffer, pH 7.4. […] Incubations were conducted in triplicate and terminated by addition of organic solvent. Samples were extracted and analyzed by LC-MS/MS as described above.

[5] = target: CYP2C19 (Homo sapiens, UniProt P33261); test: in vitro; conditions: pooled human liver microsomes, probe S-mephenytoin 50 μM (to 4′-hydroxy mephenytoin);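 note: CYP2C19 incubations ran for 30 minutes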
Method: Microsomes were prepared by differential centrifugation of liver homogenates pooled from at least ten human donors.
After a 5 minute preincubation, NADPH regenerating system (NRS) was added to initiate the reaction. CYP2A6 and CYP3A4 incubations were for 10 minutes. All other incubations were for 30 minutes.
Incubations for CYP2C8 were terminated by adding 1.0 mL of ACN, while all other incubations were terminated by adding 1.0 mL of methanol.
Vehicle control experiments were performed to establish a baseline value for enzyme activity. […] Four replicates were performed.
Two replicates were performed. […] No interference was detected in any of the metabolite assay methods used.

[6] = target: CYP2E1 (Homo sapiens, UniProt P05181); test: Inhibition of CYP2E1 activity in pooled human liver microsomes (chlorzoxazone 50 μM to 6-hydroxy chlorzoxazone); type: in vitro ADME; set-up: host or cells: cryopreserved primary human hepatocytes from three donors
Method: as §1, §2, §3

[7] = 0.75 μM metaxalone, 20 pmol cyp

Chain of CYP2E1 (P05181 whole entry): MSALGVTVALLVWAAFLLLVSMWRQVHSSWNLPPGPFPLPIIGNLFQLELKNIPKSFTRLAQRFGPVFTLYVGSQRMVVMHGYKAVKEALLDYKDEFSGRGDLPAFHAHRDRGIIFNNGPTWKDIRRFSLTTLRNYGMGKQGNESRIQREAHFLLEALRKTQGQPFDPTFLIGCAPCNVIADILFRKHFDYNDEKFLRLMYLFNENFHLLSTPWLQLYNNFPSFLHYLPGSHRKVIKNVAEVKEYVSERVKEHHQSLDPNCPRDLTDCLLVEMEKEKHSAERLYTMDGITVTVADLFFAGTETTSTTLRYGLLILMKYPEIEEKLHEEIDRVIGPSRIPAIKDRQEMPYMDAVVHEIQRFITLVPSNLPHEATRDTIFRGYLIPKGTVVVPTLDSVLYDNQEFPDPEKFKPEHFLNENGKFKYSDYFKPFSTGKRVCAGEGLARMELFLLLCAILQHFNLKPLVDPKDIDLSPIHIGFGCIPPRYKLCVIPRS
Chain of CYP2D6 (P10635 whole entry): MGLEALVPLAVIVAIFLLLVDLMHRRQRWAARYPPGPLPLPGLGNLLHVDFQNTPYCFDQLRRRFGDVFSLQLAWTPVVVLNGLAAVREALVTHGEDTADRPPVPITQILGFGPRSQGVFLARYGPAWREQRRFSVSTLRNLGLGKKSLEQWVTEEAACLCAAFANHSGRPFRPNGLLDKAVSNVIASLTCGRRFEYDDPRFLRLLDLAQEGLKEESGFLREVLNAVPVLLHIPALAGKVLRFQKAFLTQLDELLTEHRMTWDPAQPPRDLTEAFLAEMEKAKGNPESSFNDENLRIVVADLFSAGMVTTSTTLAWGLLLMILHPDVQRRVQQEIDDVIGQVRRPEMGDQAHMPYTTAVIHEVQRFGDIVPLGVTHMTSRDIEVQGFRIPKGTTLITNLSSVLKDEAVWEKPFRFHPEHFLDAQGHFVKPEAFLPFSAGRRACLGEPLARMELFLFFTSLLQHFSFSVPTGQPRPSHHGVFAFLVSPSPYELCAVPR
T2 sequence (P11712 whole entry): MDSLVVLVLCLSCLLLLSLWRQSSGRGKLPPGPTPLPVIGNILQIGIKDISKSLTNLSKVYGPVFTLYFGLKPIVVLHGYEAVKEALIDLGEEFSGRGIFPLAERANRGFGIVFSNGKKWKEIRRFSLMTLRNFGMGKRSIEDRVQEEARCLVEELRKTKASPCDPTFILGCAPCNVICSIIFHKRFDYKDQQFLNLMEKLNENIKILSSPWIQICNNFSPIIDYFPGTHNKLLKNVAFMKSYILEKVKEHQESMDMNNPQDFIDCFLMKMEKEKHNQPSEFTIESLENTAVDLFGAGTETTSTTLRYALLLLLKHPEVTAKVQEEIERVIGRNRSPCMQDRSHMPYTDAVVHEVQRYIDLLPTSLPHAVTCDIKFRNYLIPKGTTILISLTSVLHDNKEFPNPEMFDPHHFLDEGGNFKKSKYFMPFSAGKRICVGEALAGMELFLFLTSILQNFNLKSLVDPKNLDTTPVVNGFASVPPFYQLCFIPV
Chain of CYP2C19 (P33261 whole entry): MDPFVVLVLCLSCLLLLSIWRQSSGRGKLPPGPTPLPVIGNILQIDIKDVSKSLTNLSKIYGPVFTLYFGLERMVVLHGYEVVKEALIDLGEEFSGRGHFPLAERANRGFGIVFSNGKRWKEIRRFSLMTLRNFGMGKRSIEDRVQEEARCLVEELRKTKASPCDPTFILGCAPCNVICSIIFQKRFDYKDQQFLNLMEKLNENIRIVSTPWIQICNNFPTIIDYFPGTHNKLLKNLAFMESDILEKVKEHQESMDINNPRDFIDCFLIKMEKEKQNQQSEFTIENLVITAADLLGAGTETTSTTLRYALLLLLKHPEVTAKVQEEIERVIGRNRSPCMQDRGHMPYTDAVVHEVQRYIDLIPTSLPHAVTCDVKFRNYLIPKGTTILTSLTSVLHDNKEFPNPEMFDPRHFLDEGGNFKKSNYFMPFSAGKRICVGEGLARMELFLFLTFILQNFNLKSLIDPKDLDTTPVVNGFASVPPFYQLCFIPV

SMILES: Cc1cc(C)cc(OCC2CNC(=O)O2)c1 (stereo not drawn) [metaxalone, 5-[(3,5-dimethylphenoxy)methyl]-2-oxazolidinone]
- inhibition of CYP activity at a statistically significant level ([1]; 0.3-100 μM metaxalone): no tested concentration of metaxalone inhibited activity
- Inhibitor ([1]; CYP isozyme 2A6, summary of studies): 0
- Percent of VC ([1]; metaxalone 0.3 μM): 96.9%
- Specific Activity Individual ([1]; metaxalone 0.3 μM): 430 pmol/min/mg protein and 398 pmol/min/mg protein and 410 pmol/min/mg protein
- Specific Activity Mean ± SD ([1]; metaxalone 0.3 μM): 413 ± 16.0 pmol/min/mg protein
- Percent of VC ([1]; metaxalone 1 μM): 95.7%
- Specific Activity Individual ([1]; metaxalone 1 μM): 399 pmol/min/mg protein and 409 pmol/min/mg protein and 414 pmol/min/mg protein
- Specific Activity Mean ± SD ([1]; metaxalone 1 μM): 407 ± 7.36 pmol/min/mg protein
- Percent of VC ([1]; metaxalone 3 μM): 102%
- Specific Activity Individual ([1]; metaxalone 3 μM): 420 pmol/min/mg protein and 453 pmol/min/mg protein and 435 pmol/min/mg protein
- Specific Activity Mean ± SD ([1]; metaxalone 3 μM): 436 ± 16.1 pmol/min/mg protein
- Percent of VC ([1]; metaxalone 30 μM): 107%
- Specific Activity Individual ([1]; metaxalone 30 μM): 433 pmol/min/mg protein and 461 pmol/min/mg protein and 471 pmol/min/mg protein
- Specific Activity Mean ± SD ([1]; metaxalone 30 μM): 455 ± 19.7 pmol/min/mg protein
- Percent of VC ([1]; metaxalone 100 μM): 94.8%
- Specific Activity Individual ([1]; metaxalone 100 μM): 395 pmol/min/mg protein and 393 pmol/min/mg protein and 423 pmol/min/mg protein
- Specific Activity Mean ± SD ([1]; metaxalone 100 μM): 404 ± 16.6 pmol/min/mg protein
- Inducer/Inhibitor [2]: −
- Percent of VC ([2]; Donor 1, Metaxalone 0.4 μM): 108%
- Percent of VC ([2]; Donor 1, Metaxalone 4 μM): 100%
- Percent of VC ([2]; Donor 1, Metaxalone 40 μM): <73.2%
- Percent of VC ([2]; Donor 2, Metaxalone 4 μM): 92.9%
- Percent of VC ([2]; Donor 2, Metaxalone 40 μM): 60.4%
- Percent of VC ([2]; Donor 3, Metaxalone 0.4 μM): 111%
- Percent of VC ([2]; Donor 3, Metaxalone 40 μM): 78.4%
- Specific Activity Mean ± SD ([2]; Donor 3, Metaxalone 40 μM): 0.127 ± 0.005 pmol/min/million cells
- Specific Activity Mean ± SD ([2]; human, 48 h, 0.4 µM): 0.179 ± 0.0111 pmol/min/million cells
- Specific Activity Mean ± SD ([2]; human, 48 h, 4 µM): 0.167 ± 0.0210 pmol/min/million cells
- effect on CYP2C9 activity ([2]; human, hepatocytes, 48 h, 40 μM): significantly reduced CYP2C9 activity
- percent turnover ([3]; 0.75 μM metaxalone, 5 pmol CYP450): 9.9%
- % Turnover Mean ([3]; 0.75 μM metaxalone, 5 pmol cyp): 9.9%
- [metaxalone] Mean ([3]; 0.75 μM metaxalone, 5 pmol cyp): 0.642 µM
- % Turnover % ([3]; 0.75 μM metaxalone, 5 pmol cyp): 8.8% and 11.6% and 9.1%
- [metaxalone] ([3]; 0.75 μM metaxalone, 5 pmol cyp): 0.649 µM and 0.629 µM and 0.647 µM
- percent turnover ([3]; 0.75 μM metaxalone, 20 pmol CYP450): 19.5%
- % Turnover Mean [3, 7]: 19.5%
- [metaxalone] Mean [3, 7]: 0.573 µM
- % Turnover % [3, 7]: 23.3% and 16.7% and 18.5%
- [metaxalone] [3, 7]: 0.546 µM and 0.593 µM and 0.581 µM
- percent turnover ([3]; 7.5 μM metaxalone, 5 pmol CYP450): 12.6%
- % Turnover Mean ([3]; 7.5 μM metaxalone, 5 pmol cyp): 12.6%
- [metaxalone] Mean ([3]; 7.5 μM metaxalone, 5 pmol cyp): 6.74 µM
- % Turnover % ([3]; 7.5 μM metaxalone, 5 pmol cyp): 10.7% and 12.5% and 14.5%
- [metaxalone] ([3]; 7.5 μM metaxalone, 5 pmol cyp): 6.89 µM and 6.75 µM and 6.60 µM
- percent turnover ([3]; 7.5 μM metaxalone, 20 pmol CYP450): 24.9%
- % Turnover Mean ([3]; 7.5 μM metaxalone, 20 pmol cyp): 24.9%
- [metaxalone] Mean ([3]; 7.5 μM metaxalone, 20 pmol cyp): 5.79 µM
- % Turnover % ([3]; 7.5 μM metaxalone, 20 pmol cyp): 23.9% and 23.5% and 27.3%
- [metaxalone] ([3]; 7.5 μM metaxalone, 20 pmol cyp): 5.87 µM and 5.90 µM and 5.61 µM
- Substrate ([3]; CYP isozyme 2D6, summary of studies): +
- % Turnover Mean ([4]; 0.75 μM metaxalone): 5.53%
- % inhibition of turnover Mean ([4]; 0.75 μM metaxalone): 81.4%
- Mean Conc. ([4]; 0.75 μM metaxalone): 0.729 µM
- % Turnover ([4]; 0.75 μM metaxalone): 5.4% and 5.6% (2×)
- % inhibition of turnover ([4]; 0.75 μM metaxalone): 81.9% and 81.3%
- Conc. ([4]; 0.75 μM metaxalone): 0.730 µM
- % Turnover Mean ([4]; 7.5 μM metaxalone): 11.6%
- % inhibition of turnover Mean ([4]; 7.5 μM metaxalone): 52.8%
- Mean Conc. ([4]; 7.5 μM metaxalone): 7.52 µM
- % Turnover ([4]; 7.5 μM metaxalone): 10.2% and 12.6%
- % inhibition of turnover ([4]; 7.5 μM metaxalone): 51.0% and 58.5% and 48.8%
- Conc. ([4]; 7.5 μM metaxalone): 7.49 µM and 7.65 µM and 7.44 µM
- inhibition at 30 min, 100 μM [5]: 35.1%
- inhibition of CYP activity at a statistically significant level ([6]; 0.3-100 μM metaxalone, p≦0.05): inhibited
- Inhibitor ([6]; CYP isozyme 2E1, summary of studies): +
- inhibition at 30 min, 100 μM ([6]; human, pooled human liver microsomes, probe chlorzoxazone 50 μM (to 6-hydroxy chlorzoxazone)): 12.8%
- Percent of VC ([6]; metaxalone 0.3 μM): 83.3%
- Specific Activity Individual ([6]; metaxalone 0.3 μM): 196 pmol/min/mg protein and 187 pmol/min/mg protein and 185 pmol/min/mg protein
- Specific Activity Mean ± SD ([6]; metaxalone 0.3 μM): 189 ± 6.08 pmol/min/mg protein
- Percent of VC ([6]; metaxalone 1 μM): 84.0%
- Specific Activity Individual ([6]; metaxalone 1 μM): 194 pmol/min/mg protein (2×) and 185 pmol/min/mg protein
- Specific Activity Mean ± SD ([6]; metaxalone 1 μM): 191 ± 5.18 pmol/min/mg protein
- Percent of VC ([6]; metaxalone 3 μM): 88.6%
- Specific Activity Individual ([6]; metaxalone 3 μM): 203 pmol/min/mg protein (2×) and 198 pmol/min/mg protein
- Specific Activity Mean ± SD ([6]; metaxalone 3 μM): 201 ± 2.94 pmol/min/mg protein
- Percent of VC ([6]; metaxalone 30 μM): 86.1%
- Specific Activity Individual ([6]; metaxalone 30 μM): 191 pmol/min/mg protein and 199 pmol/min/mg protein and 197 pmol/min/mg protein
- Specific Activity Mean ± SD ([6]; metaxalone 30 μM): 196 ± 3.88 pmol/min/mg protein
- Percent of VC ([6]; metaxalone 100 μM): 87.2%
- Specific Activity Individual ([6]; metaxalone 100 μM): 200 pmol/min/mg protein and 202 pmol/min/mg protein and 193 pmol/min/mg protein
- Specific Activity Mean ± SD ([6]; metaxalone 100 μM): 198 ± 4.66 pmol/min/mg protein
